Experimental data reported in paper PMC5700161, “Structure of human immunoproteasome with a reversible and noncompetitive inhibitor that selectively inhibits activated lymphocytes” (Nature Communications, 2017).

Assays:
[1] = biological target: T1, β5i in Karpas 1106P cells (Homo sapiens, UniProt P20618+P28062); test: Intracellular β5i activity in Karpas 1106P cells, (Ac-ANW)2-R110; type: cell-based
T1 construct: host or cells: Karpas 1106P
Procedure: To determine if this class of inhibitors is cell penetrable, we treated the B-cell lymphoma line Karpas 1106P[28] (expressing a high proportion of i-20S over c-20S) with PKS21221 before incubation with either (Ac-ANW)2-R110 (a specific substrate of β5i) or suc-LLVY-luciferin (a substrate of β5) (Fig. 4a). […] No β5i activity was detected in HepG2 cells using (Ac-ANW)2-R110 as a substrate.
Cell viability was determined by CellTiter-glo.
Intracellular proteasomal activity and inhibition assay were performed as reported. Karpas 1106P (80,000 cells per well) were plated and incubated with compound at indicated concentrations for 1 h at 37 °C. The activity of the overall β5 activity including β5i and β5c in each was measured in situ after compound removal with Proteasome-Glo assay kit according to manufacturer’s instructions. Luminescence was recorded on a SpectraMax M5 plate reader. Relative percentage of RLU was used to calculate the IC50s.

RPMI 8226 cells = test: Cytotoxicity, CellTiter-glo, RPMI 8226; type: cell-based; conditions: 72 h
Procedure: (§1) Fig. 4 Intracellular proteasome inhibition by PKS21221 and its cytotoxicity against transformed cell lines. a Karpas 1106P lymphoma cells (white and black symbols) or HepG2 cells (blue symbols) were treated with PKS21221 for 2 h at the concentrations indicated prior to incubation with substrate (Ac-ANW)2R110 for β5i (Karpas cells) or suc-LLVY-luciferin for β5 (Karpas cells and HepG2 cells). […] Cell viability was determined by CellTiter-glo. Data are means ± SEM of three to four independent experiments
(§2) We incubated MM.1S, RPMI 8226, Karpas and HepG2 cells with PKS21221 at different concentrations, and determined cell viability after 72 h (Fig. 4b).
(§3) We used Karpas 1106P B lymphoma cell line (Cat. No. 06072607, Aldrich)[15],[16],[52], HepG2 (HB-8065, ATCC), MM.1S (Cat. No. CRL-2974, ATCC). Cells were cultured at 37 °C in a humidified air/5% CO2 atmosphere in medium supplemented with 10% fetal bovine serum, except for the medium for Karpas 1106P cells which contained 20% fetal bovine serum, and 100 units per ml penicillin, 100 μg per ml streptomycin in RPMI 1640 medium. Karpas 1106P was used at 80,000 cells per well, MM.1S at 100,000 cells per well, and HepG2 at 12,000 cells per well. […] Viable cells were counted using Cell-titer Glo assay kit. EC50s were calculated using PRISM (Graphpad).

Karpas 1106P cells = test: Cytotoxicity, CellTiter-glo, Karpas 1106P; conditions: read-out: EC50 Karpas, 72 h
Procedure: as §1, §2, §3

β2i = β2i (Homo sapiens, UniProt P40306); test: IC50 against β2i of human immunoproteasome (Z-VLR-AMC); conditions: read-out: IC50 2i - VLR (β2i); substrate Z-VLR-AMC
Procedure: IC50s of all compounds against β5i and β5c (Table 2) and against β1i, β2i, β1c, and β2c (Supplementary Table 1) were determined following reported methods[8].

In the case of `Cc1ccc(S(=O)(=O)N[C@@H](CC(=O)NC(C)(C)C)C(=O)NCCNC(=O)c2cc(-c3ccccc3F)ccc2F)cc1` [PKS21221], the IC50 [1] is reported as 172 ± 33 nM, the EC50 (RPMI 8226 cells) is reported as 66 ± 6 nM and the EC50 (Karpas 1106P cells) is reported as 740 ± 145 nM. For the same compound, the IC50 (β2i) was > 50000 nM.
